A word on the fraction unbound: it is the share of the substance not bound to proteins or other matrix. High values mean weak binding, low ones extensive binding. One may read the Kp as tissue or fluid exposure divided by exposure in the circulation.

Results on 25 compounds are retold here after ChEMBL document CHEMBL4823245, “Development of an In Silico Prediction Model for P-glycoprotein Efflux Potential in Brain Capillary Endothelial Cells toward the Prediction of Brain Penetration” (J Med Chem, 2021).

Structures are written as SMILES.

A short description of data set [1]: Unbound plasma concentration in P-gp knock out Sprague-Dawley rat at 5 mg/ml/kg, po measured upto 4 hrs by LC-MS analysis.
Data set [2] is described as follows: Unbound brain concentration in P-gp knock out Sprague-Dawley rat at 5 mg/ml/kg, po measured upto 4 hrs by LC-MS analysis. The following applies: in vivo.
A short description of data set [3]: Unbound brain-to-plasma concentration ratio in P-gp knock out Sprague-Dawley rat.
Data set [4] is described as follows: Ratio of drug concentration in brain to plasma of P-gp knock out Sprague-Dawley rat.

Compound `O=c1[nH]c2ccccc2n1CCCN1CCC(n2c(=O)[nH]c3cc(Cl)ccc32)CC1` [DOMPERIDONE] showed a fraction unbound at 4 h in data set [1] (in vivo) of 0.029. Moreover, in data set [2], the Fu was found to be 0.017.

`Cc1c(O)cccc1C(=O)N[C@@H](CSc1ccccc1)[C@H](O)CN1C[C@H]2CCCC[C@H]2C[C@H]1C(=O)NC(C)(C)C`: the fraction unbound at 4 h in data set [1] (plasma) came out at 0.003. Besides, the Kp uu in data set [3] (brain/plasma) was 0.007.

Turning to `C=C[C@H]1C[N@@]2CC[C@H]1C[C@@H]2[C@@H](O)c1ccnc2ccc(OC)cc12` [QUINIDINE], in data set [3] (brain), the Kp uu is 0.065.

`CC(C)(C)NC(=O)[C@@H]1C[C@@H]2CCCC[C@@H]2CN1C[C@@H](O)[C@H](Cc1ccccc1)NC(=O)[C@H](CC(N)=O)NC(=O)c1ccc2ccccc2n1` gave a fraction unbound at 4 h in data set [1] (plasma) of 0.005. The compound further yielded a Fu in data set [2] of 0.006. Besides, in data set [4] (brain), the Kp was 0.067. For the same compound, the Kp uu in data set [3] (brain) was determined as 0.014.

`COc1ccc2c(c1)c(CC(=O)O)c(C)n2C(=O)c1ccc(Cl)cc1` [INDOMETHACIN] displayed an unbound share (fraction unbound) at 4 h in data set [1] (plasma) of 0.008. The Fu in data set [2] is on record as 0.048. In addition, the Kp in data set [4] (brain) stood at 0.009. For the same compound, the Kp uu in data set [3] (brain) stood at 0.074.

Consider `Cc1nc2n(c(=O)c1CCN1CCC(c3noc4cc(F)ccc34)CC1)CCCC2O` (configuration not stated) [PALIPERIDONE], for which, in data set [1] (plasma), the unbound share (fraction unbound) at 4 h came out at 0.047. Also, the Kp in data set [4] (brain/plasma) came out at 0.867. For the same compound, the Kp uu in data set [3] (brain/plasma) was 0.443.

As to `Clc1ccc2c(c1)CCc1cccnc1C2=C1CCNCC1` [DESLORATADINE], the fraction unbound at 4 h in data set [1] (plasma) was found to be 0.19. For the same compound, in data set [3] (brain/plasma), the Kp uu came to 0.061.

In turn, `C[C@H]1O[C@@H](O[C@H]2[C@@H](O)C[C@H](O[C@H]3[C@@H](O)C[C@H](O[C@H]4CC[C@@]5(C)[C@H](CC[C@@H]6[C@@H]5C[C@@H](O)[C@]5(C)[C@@H](C7=CC(=O)OC7)CC[C@]65O)C4)O[C@@H]3C)O[C@@H]2C)C[C@H](O)[C@@H]1O` [DIGOXIN] had a fraction unbound at 4 h in data set [1] (in vivo) of 0.583.

Turning to `CC[C@H]1OC(=O)[C@H](C)[C@@H](O[C@H]2C[C@@](C)(OC)[C@@H](O)[C@H](C)O2)[C@H](C)[C@@H](O[C@@H]2O[C@H](C)C[C@H](N(C)C)[C@H]2O)[C@](C)(OC)C[C@@H](C)C(=O)[C@H](C)[C@@H](O)[C@]1(C)O` [CLARITHROMYCIN], the fraction unbound at 4 h in data set [1] (in vivo) worked out at 0.377. Also, the Fu in data set [2] is recorded as 0.113. In addition, the Kp in data set [4] (brain) is 1.96. Further, the Kp uu in data set [3] (brain) worked out at 0.014.

Regarding `Cc1nc2n(c(=O)c1CCN1CCC(c3noc4cc(F)ccc34)CC1)CCCC2` [RISPERIDONE], the Fu in data set [1] (in vivo, 4 h) is listed as 0.033; in data set [2], 0.12. In data set [4] (brain), the Kp was 1.56. In addition, the Kp uu in data set [3] (brain/plasma) was 1.38.

`C[C@@H](Oc1cc(-c2cnn(C3CCNCC3)c2)cnc1N)c1c(Cl)ccc(F)c1Cl` [CRIZOTINIB] displayed a fraction unbound at 4 h in data set [1] (plasma) of 0.03. Moreover, the Kp in data set [4] (brain/plasma) was found to be 5.55. Moreover, in data set [3] (brain/plasma), the Kp uu amounted to 0.017.

Compound `O=C(O)CCCN1CCC(OC(c2ccc(Cl)cc2)c2ccccn2)CC1` (configuration not stated) gave a fraction unbound at 4 h in data set [1] (plasma) of 0.642. In data set [4] (brain/plasma), the Kp is 0.031. Also, the Kp uu in data set [3] (brain/plasma) came out at 0.018.

Compound `Cc1nc(Nc2ncc(C(=O)Nc3c(C)cccc3Cl)s2)cc(N2CCN(CCO)CC2)n1.O` [DASATINIB] gave a fraction unbound at 4 h in data set [1] (plasma) of 0.026. For the same compound, the Fu in data set [2] was 0.013. Further, in data set [4] (brain), the partition ratio (Kp) is 0.061. Further, in data set [3] (brain), the Kp uu was determined as 0.016.

For the compound `Cc1ccc(NC(=O)c2ccc(CN3CCN(C)CC3)cc2)cc1Nc1nccc(-c2cccnc2)n1` [IMATINIB], the Kp uu in data set [3] (brain/plasma) came out at 0.041.

`CC[C@H](CO)Nc1nc(NCc2ccccc2)c2ncn(C(C)C)c2n1` [SELICICLIB] showed a fraction unbound at 4 h in data set [1] (plasma) of 0.048. Besides, the Kp in data set [4] (brain/plasma) amounted to 1.26. Further, the Kp uu in data set [3] (brain/plasma) amounted to 0.205.

In the case of `COc1cc2nc(N3CCN(C(=O)c4ccco4)CC3)nc(N)c2cc1OC` [PRAZOSIN], the free fraction (fraction unbound) at 4 h in data set [1] (plasma) came out at 0.264. Moreover, in data set [4] (brain/plasma), the Kp was determined as 0.247. In addition, in data set [3] (brain/plasma), the Kp uu was 0.164.

Compound `C[C@@H]1C[C@H]2[C@@H]3CCC4=CC(=O)C=C[C@]4(C)[C@@]3(F)[C@@H](O)C[C@]2(C)[C@@]1(O)C(=O)CO` [DEXAMETHASONE] registered a fraction unbound at 4 h in data set [1] (plasma) of 0.159.

On to `CN(C)CCc1c[nH]c2ccc(C[C@H]3COC(=O)N3)cc12` [ZOLMITRIPTAN], for which the fraction unbound at 4 h in data set [1] (in vivo) was found to be 0.942. In data set [2], this compound returned a Fu of 1. Also, the Kp in data set [4] (brain) is 0.043. The Kp uu in data set [3] (brain) turned out to be 0.035.

`COc1ccc(CCN2CCC(Nc3nc4ccccc4n3Cc3ccc(F)cc3)CC2)cc1` [ASTEMIZOLE] had a fraction unbound at 4 h in data set [1] (in vivo) of 0.011. The compound further displayed a Fu in data set [2] of 0.004. The Kp in data set [4] (brain) turned out to be 38.9. Further, the Kp uu in data set [3] (brain) worked out at 0.577.

In the case of `COc1cc([C@@H]2c3cc4c(cc3[C@@H](O[C@@H]3O[C@@H]5CO[C@@H](C)O[C@H]5[C@H](O)[C@H]3O)[C@H]3COC(=O)[C@H]23)OCO4)cc(OC)c1O` [ETOPOSIDE], the fraction unbound at 4 h in data set [1] (in vivo) was 0.357. Further, the Fu in data set [2] amounted to 0.539. The Kp in data set [4] (brain) came to 0.037. Moreover, the Kp uu in data set [3] (brain) turned out to be 0.024.

`CN1CC[C@H](c2c(O)cc(O)c3c(=O)cc(-c4ccccc4Cl)oc23)[C@H](O)C1` [ALVOCIDIB] had a fraction unbound at 4 h in data set [1] (plasma) of 0.051. In data set [4] (brain/plasma), the Kp stood at 0.451. In addition, in data set [3] (brain/plasma), the Kp uu came out at 0.234.

In data set [1] (plasma), `CC(C)CN(C[C@@H](O)[C@H](Cc1ccccc1)NC(=O)O[C@H]1CCOC1)S(=O)(=O)c1ccc(N)cc1` returned a free fraction (fraction unbound) at 4 h of 0.129.

Compound `CCN(CC)CCNC(=O)c1cc(Cl)c(N)cc1OC` [METOCLOPRAMIDE] yielded a fraction unbound at 4 h in data set [1] (in vivo) of 0.677. The compound further had a Fu in data set [2] of 0.817. For the same compound, the Kp in data set [4] (brain) worked out at 5.05. Also, the Kp uu in data set [3] (brain) was found to be 2.45.

Compound `CC(C)N(CCC(C(N)=O)(c1ccccc1)c1ccccn1)C(C)C` (configuration not stated) [DISOPYRAMIDE] yielded a fraction unbound at 4 h in data set [1] (in vivo) of 0.669. Moreover, the Fu in data set [2] was 0.491. Further, in data set [4] (brain), the partition ratio (Kp) came to 1.02. For the same compound, the Kp uu in data set [3] (brain) came out at 0.036.

For the compound `CCN(CC)CCNC(=O)c1c(C)[nH]c(/C=C2\C(=O)Nc3ccc(F)cc32)c1C` [SUNITINIB], the unbound share (fraction unbound) at 4 h in data set [1] (plasma) was found to be 0.007. Besides, in data set [4] (brain/plasma), the Kp amounted to 0.481. For the same compound, in data set [3] (brain/plasma), the Kp uu is 0.414.
